From paper PMC2063203, “The renal effects of the water-soluble, non-folylpolyglutamate synthetase-dependent thymidylate synthase inhibitor ZD9331 in mice” (British Journal of Cancer, 1998)
≈ marks a conversion by molar mass, not a printed value. Where “and” joins values, the source holds several entries; their conditions need not be identical. Identical values can stand only once. Like-named read-outs stand apart in the source and are kept apart here.

Assays:
[1] = test system: DBA-2 mice; experiment: Kidney histology (H & E) and immunohistochemical staining for ZD9331; type: in vivo
[2] = test system: L5178Y (TK-/-) lymphoma; set-up: method as in Stephens et al, 1994; Jackman et al, 1997; details: ref Stephens et al, 1994, Jackman et al, 1997, cited from earlier work
[3] = Aqueous solubility; type: physicochemical
[4] = Kidney drug distribution and kidney-plasma ratios (HPLC); type: in vivo, mice; details: for Cmax / Tmax / AUC(0-t): mouse, DBA-2 mice; for AUC(0-t): read-out: AUC0-8h
Experimental: (§1) British Journal of Cancer (1998) 78(11), 1457-1463 ? […] In contrast to Tomudex (ZD1694), ZD9331 may therefore be active against tumours with low FPGS activity. […] In view of the history of renal toxicity with some earlier TS inhibitors and the possible therapeutic use of bolus ZD9331, we have examined the effects of bolus ZD9331 dose and route of administration on plasma and kidney pharmacokinetics and renal function in mice. Renal function was assessed by measuring [14C]inulin clearance, and drug concentrations were assayed by reverse-phase high-performance liquid chromatography (HPLC). […] Kidney drug concentrations were slightly elevated in iv.- versus i.p.-treated animals at the low dose (50 mg kg-'), with a correspondingly larger area under the curve. However, at the highest dose (200 mg kg-'), peak kidney drug concentrations were 20-fold higher following i.v. administration than after i.p., with marked kidney retention, resulting in a 50-fold greater kidney drug exposure for the i.v. versus the i.p. route. […] These adverse effects can be readily overcome by i.p. administration, indicating the likely need for short infusions in clinical settings. […] Early studies established that nephrotoxicity may be a result of poor aqueous solubility of 2-amino compounds such as CB3717, and it was shown that 2-desamino CB3717 was more water soluble and less nephrotoxic (Jones et al, 1989; 1996). […] These polyglutamate forms also exibit intra- cellular retention, which may contribute to toxicity as well as anti- tumour activity. […] Such compounds might be expected to show activity in a different spectrum of tumours from ZD1694 and to have a more manageable toxicity profile because of the lack of retained cyto- toxic metabolites. […] MATERIALS AND METHODS Drug administration and animals The compound ZD933 1 (Figure 1) was provided as a white crystalline salt. ['4C]inulin was provided as a carboxylic acid (Amersham, UK, 250 µCi in 5 ml, specific activity 6.6 mCi mmol-') and diluted to an activity of 5 µCi ml-' in phosphate-buffered saline (PBS). ZD9331 was dissolved in 0.05 M sodium bicarbonate, 1457 1458 Ml Walton et al ~~ N Ny~~~14COOHH 0 H IN H N CH ~~~~H , 4 H3C N3 H Figure 1 The chemical structure of ZD9331 adjusted to pH 9.0 and administered either i.v. via the tail vein or i.p. at 0.01 ml g-' mouse body weight. [14C]inulin was administered at 0.05 gCi g-' (i.e. 0.01 ml g-') i.v. via the tail vein. Adult female DBA-2 mice were obtained from OLAC (Bicester, UK) and used at 8-12 weeks of age at a body weight of 15-25 g. Mice were housed in cages containing untreated sawdust and allowed access to food and water ad libitum. Sample preparation Plasma and tissue samples were prepared using standard tech- niques (Walton et al, 1996). Briefly, whole blood was obtained by cardiac puncture into heparinized syringes from halothane- anaesthetized mice. Plasma was prepared by centrifugation at 12 000 r.p.m. x 2 min in a bench-top microcentrifuge. Kidney and liver tissues were rapidly removed, washed and snap frozen on dry ice. Frozen plasma and tissues were stored at -20?C for up to 4 weeks prior to analysis. Individual samples were thawed on ice and handled rapidly. ZD9331 was extracted from whole plasma or tissue homogenates (33% w/v in 0.1 M Tris, pH 10.0) by the addition of an equal volume of acetonitrile, mixing and centrifugation and the super- natant removed for injection into the HPLC system. Samples were diluted with Tris buffer (0.1 M, pH 10.0) on to the linear part of the calibration curve prior to HPLC analysis. Extraction efficiencies were >95%. HPLC analysis Concentrations of ZD9331 were measured in biological samples using reversed phase HPLC on equipment supplied by Kontron (Watford, UK). Separations were carried out using stainless-steel columns heated at 45?C and packed with C18 Supelcosil ODS (10 cm x 4.6 mm, 5 µm bead size, Sigma, Dorset) and protected with NewGuard C18 columns (Anachem, Luton, UK). […]

[5] = test system: DBA-2 mice; experiment: Glomerular filtration rate (GFR) by [14C]inulin clearance after bolus drug; type: in vivo
Experimental: as §1

[6] = Peak plasma concentration in phase I, 30 min infusion; type: in vivo; details: after 30 min infusion
[7] = female, ip, kidney, 50 mg kg-1 i.p.
[8] = female, ip, kidney, 200 mg kg-1 i.p.
[9] = female, iv, kidney, 50 mg kg-1 i.v.
[10] = female, iv, kidney, 200 mg kg-1 i.v.

**Q.** Which renal histology ([1]; 200 mg kg-1 i.v., 4 h after) does the source give for C#CCN(Cc1cc2c(=O)[nH]c(C)nc2cc1C)c1ccc(C(=O)N[C@@H](CCc2nnn[nH]2)C(=O)O)c(F)c1 [ZD9331, (2S)-2-{O-fluoro-p-(N-(2,7-dimethyl-4-oxo-3,4-dihydroquinazolin-6-ylmethyl)-N-(prop-2-ynyl)amino}benzamido}-4-(tetrazol-5-yl)butyric acid] here?
**A.** evidence of tubular dilatation (Figure SB), with the presence of fine granular casts in the tubules

**Q.** What about the “drug distribution in kidney tissue (histology with immunohistochemical staining)” value ([1]; 200 mg kg-1 i.v., data not shown) of the same compound?
**A.** uniform drug distribution in tissue with no evidence of drug precipitation

**Q.** What about the renal histology ([1]; lower drug doses) of the same compound?
**A.** some tubular dilatation

**Q.** And the anti-tumour activity ([2]; 24-h s.c. infusion, 3 mg kg-1)?
**A.** anti-tumour activity

**Q.** And the anti-tumour activity ([2]; bolus administration, 50 mg kg-1)?
**A.** anti-tumour activity

**Q.** And the solubility ([3]; pH 5.3, aqueous buffer)?
**A.** 0.1 mM (≈ 53.3 µg/mL)

**Q.** What about the solubility ([3]; pH 7.4, aqueous buffer) of the same compound?
**A.** 8 mM (≈ 4260 µg/mL)

**Q.** And the “peak kidney drug level i.p., % lower than i.v.” value ([4]; 50 mg kg-1)?
**A.** 80%

**Q.** And the “kidney AUC0-8h i.p. as % of i.v. route” value ([4]; 200 mg kg-1)?
**A.** 1.8%

**Q.** And the “kidney drug exposure i.v. versus i.p.” value ([4]; 200 mg kg-1)?
**A.** 50 fold

**Q.** And the “peak kidney drug concentration i.v. versus i.p.” value ([4]; 200 mg kg-1)?
**A.** 20 fold

**Q.** What about the “peak kidney drug level i.p. as % of i.v. value” ([4]; 200 mg kg-1) of the same compound?
**A.** 5%

**Q.** And the “kidney-plasma ratio at 8 h” value ([4]; 200 mg kg-1 i.p.)?
**A.** 2 000%

**Q.** What about the “kidney-plasma ratio relative to the lower dose of 50 mg kg-1” value ([4]; 200 mg kg-1 i.p.) of the same compound?
**A.** 2-3 times

**Q.** What about the “kidney-plasma ratio, initial” value ([4]; 200 mg kg-1 i.p.) of the same compound?
**A.** 20%

**Q.** And the “kidney AUC0-8h” value ([4]; 200 mg kg-1 i.v.)?
**A.** 9660 µM·h

**Q.** What about the “kidney-plasma ratio after 8 h” value ([4]; 200 mg kg-1 i.v.) of the same compound?
**A.** 100 000%

**Q.** And the “kidney-plasma ratio, initial (measured at 5 min)” value ([4]; 200 mg kg-1 i.v.)?
**A.** > 100%

**Q.** And the “peak kidney drug level” value ([4]; 200 mg kg-1 i.v.)?
**A.** 3.62 mM

**Q.** And the “peak kidney drug level versus lower dose” value ([4]; 200 mg kg-1 i.v. compared with 50 mg kg-1 i.v.)?
**A.** ~12 fold

**Q.** What about the Kp at 4 h ([4]; female, DBA-2, mouse, kidney, ip, 50 mg kg-1, 50 mg kg-1 i.p., Discussion, read-out: kidney-plasma ratio, steady-state equilibrium at 4 h) of the same compound?
**A.** 2 to 4

**Q.** And the Kp at 1 h ([4]; female, DBA-2, mouse, kidney, ip, 50 mg kg-1, 50 mg kg-1 i.p., read-out: kidney-plasma ratio after 1 h)?
**A.** 1

**Q.** What about the Kp ([4]; female, DBA-2, mouse, kidney, ip, 50 mg kg-1, 50 mg kg-1 i.p., read-out: kidney-plasma ratio, steady-state) of the same compound?
**A.** 1 to 3

**Q.** And the Kp at 30 min ([4]; female, DBA-2, mouse, kidney, iv, 50 mg kg-1, 50 mg kg-1 i.v., read-out: kidney-plasma ratio at 30 min)?
**A.** 10

**Q.** What about the Kp at 2 h ([4]; female, DBA-2, mouse, kidney, iv, 50 mg kg-1, 50 mg kg-1 i.v., read-out: kidney-plasma ratio, equilibrium at 2 h) of the same compound?
**A.** 2 to 3

**Q.** What about the Kp ([4]; female, DBA-2, mouse, kidney, iv, 50 mg kg-1, 50 mg kg-1 i.v., read-out: kidney-plasma ratio, initial) of the same compound?
**A.** 0.35

**Q.** And the Kp ([4]; female, DBA-2, mouse, kidney, iv, 200 mg kg-1, 200 mg kg-1 i.v., read-out: kidney concentration relative to plasma, plateau)?
**A.** 400 to 600

**Q.** What about the Kp at 5 min ([4]; female, DBA-2, mouse, kidney, iv, 200 mg kg-1, 200 mg kg-1 i.v., read-out: kidney-plasma ratio, initial (measured at 5 min)) of the same compound?
**A.** 1

**Q.** And the Kp ([4]; female, DBA-2, mouse, kidney/plasma, ip, 200 mg kg-1, 200 mg kg-1 i.p., read-out: kidney-plasma ratio, increased steadily to)?
**A.** 10 to 20

**Q.** What about the Kp ([4]; female, DBA-2, mouse, kidney/plasma, ip, 200 mg kg-1, 200 mg kg-1 i.p., read-out: kidney-plasma ratio, initial) of the same compound?
**A.** 0.23

**Q.** What about the Cmax [4, 7] of the same compound?
**A.** 31500 ng/g and 59.1 µM

**Q.** And the Tmax [4, 7]?
**A.** 10 min

**Q.** What about the AUC(0-t) [4, 7] of the same compound?
**A.** 47.5 µM·h

**Q.** And the Cmax [4, 8]?
**A.** 96400 ng/g and 181 µM

**Q.** And the Tmax [4, 8]?
**A.** 30 min

**Q.** And the AUC(0-t) [4, 8]?
**A.** 179 µM·h

**Q.** And the Cmax [4, 9]?
**A.** 163000 ng/g and 305 µM

**Q.** And the Tmax [4, 9]?
**A.** 10 min

**Q.** What about the AUC(0-t) [4, 9] of the same compound?
**A.** 240 µM·h

**Q.** And the Cmax [4, 10]?
**A.** 1.9e+06 ng/g and 3.62 mM

**Q.** And the Tmax [4, 10]?
**A.** 30 min

**Q.** What about the AUC(0-t) [4, 10] of the same compound?
**A.** 9660 µM·h

**Q.** What about the “effect on renal function (GFR)” value ([5]; 50 mg kg-1, 4 h after administration) of the same compound?
**A.** minimal effects on renal function

**Q.** What about the “effect on GFR” value ([5]; 150 mg kg-1 i.p., 24 h after administration) of the same compound?
**A.** no effect

**Q.** What about the “effect on GFR” value ([5]; 150 mg kg-1 i.v., 4 h after administration) of the same compound?
**A.** slight decrease in GFR

**Q.** And the “effect on GFR” value ([5]; 150 mg kg-1 i.v., 24 h after administration)?
**A.** no effect

**Q.** What about the “effect on GFR” value ([5]; 200 mg kg-1 i.p.) of the same compound?
**A.** minimal

**Q.** What about the “effect on GFR” value ([5]; 200 mg kg-1 i.v., 4 h after administration) of the same compound?
**A.** profound decrease in GFR

**Q.** What about the “effect on GFR” value ([5]; 200 mg kg-1 i.v., 24 h after administration) of the same compound?
**A.** GFR inhibition was less profound

**Q.** And the nephrotoxicity ([5]; active anti-tumour dose, 50 mg kg-1 i.p., mice)?
**A.** non-nephrotoxic

**Q.** And the “effect on renal function (GFR)” value ([5]; doses up to 150 mg kg-1 i.v. or i.p., 4 or 24 h post treatment)?
**A.** no evidence of compromised renal function

**Q.** And the “peak plasma drug concentration in man as % of that after 200 mg kg-1 i.v. in mouse” value [6]?
**A.** < 1%
